Drawing on patent publication US11142560B2, “Biphasic single-chain insulin analogues” (Case Western Reserve University, priority 2014, dated 2021), this text covers Kd for 2 sequences.

The target in this test is A isoform of the insulin receptor (Homo sapiens, UniProt P06213). Description: Receptor-binding assay, insulin receptor A isoform. The conditions noted are these: two-site sequential model, read-out: equilibrium dissociation constant / binding constant. How it is done: The receptor-binding affinities of SCI-57DP and SCI-57PE were determined in relation to wild-type human insulin. The assay employed the A isoform of the insulin receptor. […] The protocol for assay of receptor-binding activities was as follows. Microtiter strip plates (Nunc Maxisorb) were incubated overnight at 4° C. with AU5 IgG (100 μl/well of […] in phosphate-buffered saline). Binding data were analyzed by a two-site sequential model.
Sequence of A isoform of the insulin receptor (P06213 28-746 isoform P06213-2 limits assumed): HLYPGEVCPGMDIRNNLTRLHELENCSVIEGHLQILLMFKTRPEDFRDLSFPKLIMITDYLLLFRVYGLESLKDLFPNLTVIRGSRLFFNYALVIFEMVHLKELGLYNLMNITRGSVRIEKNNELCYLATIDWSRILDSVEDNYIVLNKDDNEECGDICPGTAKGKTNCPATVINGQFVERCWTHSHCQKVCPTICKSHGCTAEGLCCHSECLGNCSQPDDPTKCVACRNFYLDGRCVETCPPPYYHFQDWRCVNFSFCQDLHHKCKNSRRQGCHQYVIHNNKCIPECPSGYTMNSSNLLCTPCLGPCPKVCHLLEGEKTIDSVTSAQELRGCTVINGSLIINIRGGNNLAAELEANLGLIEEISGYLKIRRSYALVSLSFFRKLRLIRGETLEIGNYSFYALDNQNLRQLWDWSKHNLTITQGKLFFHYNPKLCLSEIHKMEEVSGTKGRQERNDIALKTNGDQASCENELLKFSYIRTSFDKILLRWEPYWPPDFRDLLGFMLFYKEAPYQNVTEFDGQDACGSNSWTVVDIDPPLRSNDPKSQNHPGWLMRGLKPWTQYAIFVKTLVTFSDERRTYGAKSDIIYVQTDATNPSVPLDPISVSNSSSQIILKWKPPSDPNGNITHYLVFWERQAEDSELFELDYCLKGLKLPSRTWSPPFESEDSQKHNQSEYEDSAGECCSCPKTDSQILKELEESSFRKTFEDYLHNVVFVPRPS
Sequence of A isoform of the insulin receptor (P06213 763-1382 partner limits assumed): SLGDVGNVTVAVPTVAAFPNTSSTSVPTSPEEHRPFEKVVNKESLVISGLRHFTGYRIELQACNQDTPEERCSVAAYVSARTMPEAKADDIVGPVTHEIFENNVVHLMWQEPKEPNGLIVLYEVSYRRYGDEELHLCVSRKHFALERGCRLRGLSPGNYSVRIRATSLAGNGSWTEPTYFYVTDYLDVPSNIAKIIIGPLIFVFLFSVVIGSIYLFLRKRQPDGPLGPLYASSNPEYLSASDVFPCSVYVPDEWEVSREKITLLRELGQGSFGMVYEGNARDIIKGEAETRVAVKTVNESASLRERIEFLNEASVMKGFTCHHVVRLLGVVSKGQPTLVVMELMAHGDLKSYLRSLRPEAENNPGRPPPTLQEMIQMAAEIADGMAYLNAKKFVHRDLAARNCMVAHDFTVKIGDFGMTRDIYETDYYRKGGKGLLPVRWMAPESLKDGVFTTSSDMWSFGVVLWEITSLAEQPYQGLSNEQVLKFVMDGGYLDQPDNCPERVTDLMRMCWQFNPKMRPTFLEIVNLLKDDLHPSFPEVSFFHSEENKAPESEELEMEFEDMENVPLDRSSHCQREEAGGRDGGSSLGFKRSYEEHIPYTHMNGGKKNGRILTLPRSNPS

Bridge positions count the residues as written; N and C are the ends. Ends that are not written are not given here.

As for “FVNQHLCGSHLVEALYLVCGERGFFYTDPTEEGPRRGIVEQCCHSICSLEQLENYCN (disulfide 7-43, 19-56, 42-47) [SCI-57DP]”, the Kd amounted to 0.06 nM. For “FVNQHLCGSHLVEALYLVCGERGFFYTPETEEGPRRGIVEQCCHSICSLEQLENYCN (disulfide 7-43, 19-56, 42-47) [SCI-57PE]”, the Kd came to 0.08 nM.
